Assay results from ChEMBL document CHEMBL1944572, “High-affinity fluorescent ligands for the 5-HT(3) receptor” (Bioorg Med Chem Lett, 2012).
Active and inactive are the calls of the source. The rule behind the calls is not given here.

Key:
Format in all cases: cell-based
[1] = target: T1, 5-hydroxytryptamine receptor 3A (Homo sapiens) (UniProt P46098); assay: Binding affinity to human 5HT3A expressed in COS7 cells at 100 nM after 1 hr by fluorescence microscopy; conditions: COS-7
T1 sequence (whole entry): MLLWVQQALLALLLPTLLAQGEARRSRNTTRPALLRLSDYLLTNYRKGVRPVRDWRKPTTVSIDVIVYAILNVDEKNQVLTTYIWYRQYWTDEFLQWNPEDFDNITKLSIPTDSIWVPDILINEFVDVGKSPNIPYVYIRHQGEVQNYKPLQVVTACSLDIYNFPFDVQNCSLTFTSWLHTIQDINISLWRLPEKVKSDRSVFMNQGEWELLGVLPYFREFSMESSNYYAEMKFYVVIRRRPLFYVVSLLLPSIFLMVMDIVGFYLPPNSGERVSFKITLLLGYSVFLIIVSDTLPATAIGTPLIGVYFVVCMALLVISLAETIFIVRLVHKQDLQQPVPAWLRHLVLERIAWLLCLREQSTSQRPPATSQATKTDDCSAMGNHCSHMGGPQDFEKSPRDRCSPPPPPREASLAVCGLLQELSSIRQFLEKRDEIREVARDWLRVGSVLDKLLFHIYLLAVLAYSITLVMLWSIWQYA

[2] = target: T1, 5-hydroxytryptamine receptor 3A (Homo sapiens); assay: Binding affinity to human 5HT3A expressed in COS7 cells at 100 nM after 1 hr by fluorescence microscopy in presence of 10 uM ondansetron; conditions: COS-7
[3] = target: T2, 5-hydroxytryptamine receptor 3A (Homo sapiens, UniProt P46098); assay: Displacement of [3H]granisetron from human 5HT3A expressed in HEK293 cells after 1 hr by scintillation counting
T2 sequence (P46098 whole entry): T1 sequence (whole entry)

Row | SMILES | Activity [1] | Activity [2] | Ki [3]
1 | CN1[C@@H]2CCC[C@H]1C[C@H](NC(=O)c1nn(CCCCNc3ccc([N+](=O)[O-])c4nonc34)c3ccccc13)C2 |  |  | Not Active
2 | CN1[C@@H]2CCC[C@H]1C[C@H](NC(=O)c1nn(CCCCNC(=S)Nc3ccc(-c4c5ccc(=O)cc-5oc5cc(O)ccc45)c(C(=O)O)c3)c3ccccc13)C2 | Active | inactive | 
3 | CN1[C@@H]2CCC[C@H]1C[C@H](NC(=O)c1nn(CCCNC(=S)Nc3ccc(-c4c5ccc(=O)cc-5oc5cc(O)ccc45)c(C(=O)O)c3)c3ccccc13)C2 | Active | inactive | 
4 | CCN(CC)c1ccc2cc(C(=O)NCCCCn3nc(C(=O)N[C@@H]4C[C@H]5CCC[C@@H](C4)N5C)c4ccccc43)c(=O)oc2c1 | inactive |  | 

More lines, main results first:

Row | Activity [1] | Activity [2] | SMILES | Ki [3]
5 | inactive |  | CCN(CC)c1ccc2cc(C(=O)NCCOc3cccc4c(C(=O)N[C@@H]5C[C@H]6CCC[C@@H](C5)N6C)nn(C)c34)c(=O)oc2c1 | 
6 | inactive |  | CN1[C@@H]2CCC[C@H]1C[C@H](NC(=O)c1nn(CCCNc3ccc([N+](=O)[O-])c4nonc34)c3ccccc13)C2 | 
7 | Active | Active | CC1=CC(C)=[N+]2C1=C(CCCOC(=O)CCCn1nc(C(=O)N[C@@H]3C[C@H]4CCC[C@@H](C3)N4C)c3ccccc31)c1c(C)cc(C)n1[B-]2(F)F | 
8 | inactive |  | CN(C)c1cccc2c(S(=O)(=O)NCCCn3nc(C(=O)N[C@H]4C[C@H]5CCC[C@@H](C4)N5C)c4ccccc43)cccc12 | 
